The results in this text go back to ChEMBL document CHEMBL1781997, “Anticonvulsant 4-aminobenzenesulfonamide derivatives with branched-alkylamide moieties: X-ray crystallography and inhibition studies of human carbonic anhydrase isoforms I, II, VII, and XIV” (J Med Chem, 2011).

The structures appear in SMILES notation.

Experiment [1] deals with Carbonic anhydrase 2 (Homo sapiens, UniProt P00918).
Description: Inhibition of human carbonic anhydrase 2 preincubated with compound for 15 mins by carbon dioxide hydration assay
Experiment [2] addresses Carbonic anhydrase 14 (Homo sapiens, UniProt Q9ULX7).
Description: Inhibition of human carbonic anhydrase 14 preincubated with compound for 15 mins by carbon dioxide hydration assay
The target of experiment [3] is Carbonic anhydrase 7 (Homo sapiens, UniProt P43166).
Description: Inhibition of human carbonic anhydrase 7 preincubated with compound for 15 mins by carbon dioxide hydration assay
Experiment [4] has as its target Carbonic anhydrase 1 (Homo sapiens, UniProt P00915).
Description: Inhibition of human carbonic anhydrase 1 preincubated with compound for 15 mins by carbon dioxide hydration assay
The test system of experiment [5] is Rattus norvegicus. Nature of the experiment: Anticonvulsant activity against maximal electroshock-induced seizures in po dosed rat. The format is functional.

Chain of Carbonic anhydrase 7 (P43166 whole entry): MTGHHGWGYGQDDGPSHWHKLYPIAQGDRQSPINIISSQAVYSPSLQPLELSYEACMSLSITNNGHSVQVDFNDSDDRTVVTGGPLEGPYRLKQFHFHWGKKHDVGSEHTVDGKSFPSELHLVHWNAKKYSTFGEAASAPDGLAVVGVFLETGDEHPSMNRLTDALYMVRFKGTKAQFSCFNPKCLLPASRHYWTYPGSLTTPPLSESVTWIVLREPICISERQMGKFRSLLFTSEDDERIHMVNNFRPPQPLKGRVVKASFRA
Chain of Carbonic anhydrase 1 (P00915 whole entry): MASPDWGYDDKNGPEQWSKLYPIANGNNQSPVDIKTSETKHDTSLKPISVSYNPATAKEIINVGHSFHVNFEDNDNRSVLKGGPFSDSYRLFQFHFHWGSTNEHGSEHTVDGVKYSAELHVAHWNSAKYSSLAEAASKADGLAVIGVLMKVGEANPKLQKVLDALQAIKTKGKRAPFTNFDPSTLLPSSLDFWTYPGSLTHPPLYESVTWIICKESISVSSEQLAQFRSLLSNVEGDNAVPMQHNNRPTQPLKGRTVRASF
Chain of Carbonic anhydrase 14 (Q9ULX7 whole entry): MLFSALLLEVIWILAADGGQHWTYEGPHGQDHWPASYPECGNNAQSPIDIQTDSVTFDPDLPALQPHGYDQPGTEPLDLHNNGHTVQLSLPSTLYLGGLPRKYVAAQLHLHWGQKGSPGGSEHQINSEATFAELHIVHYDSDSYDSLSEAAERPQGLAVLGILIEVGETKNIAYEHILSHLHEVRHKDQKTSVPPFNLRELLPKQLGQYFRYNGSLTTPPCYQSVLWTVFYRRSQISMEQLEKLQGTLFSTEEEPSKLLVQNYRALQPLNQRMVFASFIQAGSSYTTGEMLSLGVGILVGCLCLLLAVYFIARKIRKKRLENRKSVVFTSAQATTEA

Turning to `CCC(CC)C(=O)NCCc1ccc(S(N)(=O)=O)cc1`, the Ki in experiment [1] was 33.8 nM; in experiment [2], 684 nM; in experiment [3], 51 nM; in experiment [4] it was 407 nM. Consider `CCC(CC(C)C)C(=O)Nc1ccc(S(N)(=O)=O)cc1` (configuration not stated), for which the median effective dose (ED50) in experiment [5] was 56 µmol/kg.

As for `CCC(CC)C(=O)Nc1ccc(S(N)(=O)=O)cc1`, the 50% effective dose (ED50) in experiment [5] was found to be 37 µmol/kg. On the same count and under the same terms, the same measure for `CCCC(CC)C(=O)Nc1ccc(S(N)(=O)=O)cc1` (configuration not stated): 41 µmol/kg. For `CCCC(C(=O)Nc1ccc(S(N)(=O)=O)cc1)C(C)C` (configuration not stated), the 50% effect level in experiment [5] (ED50) was put at a dose of 139 µmol/kg. Same read-out and setting: then `CCCC(C(=O)Nc1ccc(S(N)(=O)=O)cc1)C(C)CC` (configuration not stated), with 115 µmol/kg; and `CCC(C)CC(=O)Nc1ccc(S(N)(=O)=O)cc1` (configuration not stated), with 61 µmol/kg. Same read-out and setting: then `CCCCC(CC)C(=O)Nc1ccc(S(N)(=O)=O)cc1` (configuration not stated), with 80 µmol/kg. In experiment [5], `CC(C)C(C(=O)Nc1ccc(S(N)(=O)=O)cc1)C(C)(C)C` (configuration not stated) yielded an ED50 of 58 µmol/kg. The same measure, in the same setting: then `CC(C)(C)CC(=O)Nc1ccc(S(N)(=O)=O)cc1`, with 35 µmol/kg. For the compound `CCCC(C)C(=O)Nc1ccc(S(N)(=O)=O)cc1` (configuration not stated), the Ki was found to be 220 nM in experiment [1], 644 nM in experiment [2], 605 nM in experiment [3] and 1710 nM in experiment [4]. The compound further displayed an ED50 in experiment [5] of 40 µmol/kg. Take `CCC(C)C(=O)Nc1ccc(S(N)(=O)=O)cc1` (configuration not stated): the ED50 in experiment [5] came out at 30 µmol/kg. Still for that read-out and setting: the same measure for `CC(C)(C)C(=O)Nc1ccc(S(N)(=O)=O)cc1`: 165 µmol/kg.

For `NS(=O)(=O)c1ccc(NC(=O)Cc2ccccc2)cc1`, the results for the Ki in experiment [2], in experiment [3] and in experiment [4] were 46 nM, 52 nM and 7.6 nM, respectively. In experiment [5], this compound returned an ED50 of 55 µmol/kg. In experiment [5], `CCC(CC)C(=O)NCc1ccc(S(N)(=O)=O)cc1` had an ED50 of 87 µmol/kg. Same read-out and setting: then `CC1(C)O[C@@H]2[C@@H](CO[C@@]3(COS(N)(=O)=O)OC(C)(C)O[C@@H]23)O1` [TOPIRAMATE], with 10 µmol/kg; and `NS(=O)(=O)Cc1noc2ccccc12` [ZONISAMIDE], with 100 µmol/kg.
